Calls of active or inactive are those of the source.
How the values were obtained:
[1] = CEM21 lymphoblast cell cytotoxicity, dose response, cytotoxicity control for viral fusion inhibitor project, CellTiter-Glo luminescence, cherry-picked (AID 652042); format: functional, cell-based;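 also: potency for signal decrease meaning cytotoxicity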
[2] = inhibitors of HIV Env-driven cell fusion, dose response, cherry-pick (AID 652057); format: functional, cell-based
[3] = ZM109 Env clade C HIV-1 fusion inhibitors, dose response, HeLa effector, CEM target cells, luciferase, cherry-pick (AID 652058); format: functional, cell-based
[4] = off-target signal loss in HeLa-CEM21 co-culture – HeLa F-luc CTL cells, cherry-picked, counter-screen for HIV-1 Env fusion inhibitor project, dose response (AID 652040); format: functional, cell-based;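 also: potency for signal decrease marking cytotoxic or nonspecific inhibition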
[5] = HEp-2 cell cytotoxicity, dose response, cytotoxicity control for RSV inhibitor project, HTS (AID 2410); format: functional; conditions: human respiratory syncytial virus
Melanocortin receptor 4 = Melanocortin receptor 4 (Homo sapiens, UniProt P32245); format: functional, cell-based;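 also: Cell-based assay with luminescence read-out, confirmatory dose-response testing for agonist activity of biased ligands at MC4R; human U2OS cells with tagged receptor and beta-arrestin; potency of agonists that increase receptor coupling to beta-arrestin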
Sequence of Melanocortin receptor 4 (P32245 whole entry, the tested form may be a part): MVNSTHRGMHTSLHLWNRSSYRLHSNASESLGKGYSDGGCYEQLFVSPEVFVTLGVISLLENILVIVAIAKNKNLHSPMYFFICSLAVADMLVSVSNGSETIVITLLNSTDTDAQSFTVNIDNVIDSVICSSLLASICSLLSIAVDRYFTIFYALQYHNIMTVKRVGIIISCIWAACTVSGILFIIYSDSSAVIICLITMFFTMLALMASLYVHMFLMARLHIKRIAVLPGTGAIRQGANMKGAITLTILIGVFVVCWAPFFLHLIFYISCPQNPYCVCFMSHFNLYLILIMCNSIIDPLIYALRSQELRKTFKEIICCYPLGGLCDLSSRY

[6] = inhibitors of clade B AD8 Env fusion, dose response, cell-based, cherry-pick (AID 652062); format: functional;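 also: luciferase signal from cell-cell fusion driven by HIV-1 clade B AD8 Env; potency is for inhibitors of fusion seen as a drop in luminescence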
[7] = biological target: T1, Low molecular weight phosphotyrosine protein phosphatase (Homo sapiens, UniProt P24666); format: functional; conditions: read-out: IC50_Mean;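 also: Dose-response confirmation assay measuring inhibition of LMPTP enzyme activity by fluorescence intensity read-out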
T1 sequence (P24666 whole entry): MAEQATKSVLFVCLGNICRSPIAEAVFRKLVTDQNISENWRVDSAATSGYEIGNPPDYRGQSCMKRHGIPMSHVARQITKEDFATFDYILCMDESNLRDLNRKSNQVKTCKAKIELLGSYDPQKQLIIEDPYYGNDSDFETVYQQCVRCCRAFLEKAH

[8] = biological target: T2, Sentrin-specific protease 1 (Homo sapiens, UniProt Q9P0U3); test: Dose response confirmation of small molecule inhibitors of the catalytic domain of the SUMO protease, SENP1 in a FRET assay.; format: functional; conditions: read-out: IC50_Mean
T2 sequence (Q9P0U3 whole entry): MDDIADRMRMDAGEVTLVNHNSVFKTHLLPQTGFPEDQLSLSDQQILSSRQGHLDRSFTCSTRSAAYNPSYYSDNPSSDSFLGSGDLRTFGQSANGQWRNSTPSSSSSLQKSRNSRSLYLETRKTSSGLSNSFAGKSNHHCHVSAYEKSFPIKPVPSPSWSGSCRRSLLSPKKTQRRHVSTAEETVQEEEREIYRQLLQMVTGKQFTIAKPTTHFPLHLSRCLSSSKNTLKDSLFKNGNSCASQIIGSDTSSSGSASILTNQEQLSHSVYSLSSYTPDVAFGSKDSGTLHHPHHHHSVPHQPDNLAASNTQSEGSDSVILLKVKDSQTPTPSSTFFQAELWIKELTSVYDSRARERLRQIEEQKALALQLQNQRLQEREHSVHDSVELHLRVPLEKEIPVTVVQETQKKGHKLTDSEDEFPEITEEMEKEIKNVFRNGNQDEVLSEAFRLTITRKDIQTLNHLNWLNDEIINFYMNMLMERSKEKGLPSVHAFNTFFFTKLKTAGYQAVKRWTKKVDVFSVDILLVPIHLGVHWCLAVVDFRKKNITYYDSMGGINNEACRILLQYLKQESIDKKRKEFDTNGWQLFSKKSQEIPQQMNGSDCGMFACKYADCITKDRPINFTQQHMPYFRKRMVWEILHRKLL

[9] = biological target: T2, Sentrin-specific protease 1; test: potency of human SENP1 inhibitors, dose response, biochemical, kinetic FRET (AID 651697); format: functional; conditions: read-out: IC50_Mean
[10] = biological target: T3, DNA repair and recombination protein RAD54-like (Homo sapiens, UniProt Q92698); test: inhibitors of human RAD54 branch migration, confirmation, biochemical, fluorescence, cherry-picked samples, dose series (AID 651657); format: functional
T3 sequence (Q92698 whole entry): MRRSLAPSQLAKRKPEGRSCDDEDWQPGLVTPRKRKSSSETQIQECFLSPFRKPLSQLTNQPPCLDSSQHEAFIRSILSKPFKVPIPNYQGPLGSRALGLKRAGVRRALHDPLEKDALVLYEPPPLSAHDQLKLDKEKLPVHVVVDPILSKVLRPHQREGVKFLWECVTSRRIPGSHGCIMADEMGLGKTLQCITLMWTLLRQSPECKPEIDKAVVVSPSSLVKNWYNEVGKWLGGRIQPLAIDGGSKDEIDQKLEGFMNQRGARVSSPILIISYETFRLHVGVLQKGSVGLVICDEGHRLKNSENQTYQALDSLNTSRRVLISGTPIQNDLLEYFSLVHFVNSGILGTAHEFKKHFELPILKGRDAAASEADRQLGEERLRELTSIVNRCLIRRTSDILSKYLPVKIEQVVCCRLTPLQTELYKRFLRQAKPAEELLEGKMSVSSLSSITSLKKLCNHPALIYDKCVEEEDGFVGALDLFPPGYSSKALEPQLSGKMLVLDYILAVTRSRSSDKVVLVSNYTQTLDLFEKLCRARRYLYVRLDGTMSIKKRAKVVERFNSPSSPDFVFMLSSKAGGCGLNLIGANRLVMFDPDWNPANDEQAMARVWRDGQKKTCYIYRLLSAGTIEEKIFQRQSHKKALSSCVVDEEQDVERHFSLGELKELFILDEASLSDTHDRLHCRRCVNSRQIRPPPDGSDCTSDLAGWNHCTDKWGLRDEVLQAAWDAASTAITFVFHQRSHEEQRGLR

[11] = cytotoxicity toward NIH3T3 fibroblasts, dose response, counter-screen, cell-based, ATP luminescence, mouse fibroblasts (AID 2010); format: functional;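 also: cells exposed to compound for about 90 hours before reading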
[12] = inhibitors of intracellular T. cruzi replication, confirmation, NIH3T3 host cells, beta-gal luminescence (AID 2044); format: functional, cell-based;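 also: intracellular parasites grown in NIH/3T3 mouse fibroblasts as host cells; luminescent beta-galactosidase reporter signal from transgenic T. cruzi replicating inside host cells; inhibitors lower the luminescence signal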
[13] = biological target: T4, Ubiquitin-conjugating enzyme E2 N (Homo sapiens, UniProt P61088); format: functional;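 also: Dose-response confirmation in a TR-FRET assay detecting UBC13-driven polyubiquitin chain formation, inhibition measured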
T4 sequence (P61088 whole entry): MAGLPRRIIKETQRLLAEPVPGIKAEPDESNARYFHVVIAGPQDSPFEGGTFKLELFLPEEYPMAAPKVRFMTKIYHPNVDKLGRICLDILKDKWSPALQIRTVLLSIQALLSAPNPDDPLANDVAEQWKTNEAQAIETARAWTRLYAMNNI

[14] = biological target: T5, DNA repair protein RAD52 homolog (Homo sapiens, UniProt P43351); format: functional, biochemical
T5 sequence (P43351 whole entry): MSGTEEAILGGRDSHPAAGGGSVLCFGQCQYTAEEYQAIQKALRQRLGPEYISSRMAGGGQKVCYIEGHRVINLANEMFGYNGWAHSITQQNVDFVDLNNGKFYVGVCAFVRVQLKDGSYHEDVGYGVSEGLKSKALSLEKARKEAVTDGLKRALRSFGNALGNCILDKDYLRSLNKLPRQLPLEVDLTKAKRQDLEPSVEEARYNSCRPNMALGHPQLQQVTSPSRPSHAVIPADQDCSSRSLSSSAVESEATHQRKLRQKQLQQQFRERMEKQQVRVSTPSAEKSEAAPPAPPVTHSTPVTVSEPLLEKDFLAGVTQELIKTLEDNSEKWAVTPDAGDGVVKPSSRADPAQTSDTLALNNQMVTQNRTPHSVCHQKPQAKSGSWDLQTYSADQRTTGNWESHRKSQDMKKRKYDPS

[15] = biological target: Heat shock protein HSP 90-alpha (Homo sapiens, UniProt P07900); format: functional, organism-based
[16] = biological target: T6, Adenosylmethionine-8-amino-7-oxononanoate aminotransferase (Mycobacterium tuberculosis, UniProt P9WQ81); test: Mycobacterium tuberculosis BioA enzyme inhibitor Measured in Biochemical System Using Plate Reader - 2163-02_Inhibitor_Dose_CherryPick_Activity.; format: functional, Mycobacterium tuberculosis UT205
T6 sequence (P9WQ81 whole entry): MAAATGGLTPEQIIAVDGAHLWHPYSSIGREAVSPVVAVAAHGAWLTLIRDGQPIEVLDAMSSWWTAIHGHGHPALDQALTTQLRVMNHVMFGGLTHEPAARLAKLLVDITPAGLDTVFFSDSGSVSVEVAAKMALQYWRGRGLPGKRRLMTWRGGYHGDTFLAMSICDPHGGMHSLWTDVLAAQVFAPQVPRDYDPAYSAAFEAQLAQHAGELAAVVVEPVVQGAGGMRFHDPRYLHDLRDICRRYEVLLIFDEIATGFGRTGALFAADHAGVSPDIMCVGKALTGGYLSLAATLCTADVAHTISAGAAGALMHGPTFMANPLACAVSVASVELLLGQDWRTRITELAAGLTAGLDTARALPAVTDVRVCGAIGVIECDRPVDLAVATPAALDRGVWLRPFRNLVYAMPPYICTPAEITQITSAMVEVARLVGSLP

H9c2 = test: cells; format: functional, cell-based; conditions: Rattus norvegicus, H9c2, Myocardium;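 also: confirmatory concentration-response retest of ultra-high-throughput screening hits for modulation of myocardial damage; cell death induced by hydrogen peroxide oxidative stress; compound pretreatment for 60 min then peroxide exposure for 2 h; potency is for protecting the cells against peroxide damage rather than for killing them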
SN12K1 = test: cells; format: functional; conditions: Homo sapiens
P388 = test: cells; format: functional; conditions: Mus musculus
P388/ADR = test: cells; format: functional; conditions: Mus musculus

With `CCOc1cc(CNCCc2c[nH]c3ccccc23)cc(Cl)c1OCC` the AC50 [1] was 26.6 µM (active), the AC50 [2] was 4.29 µM (active) and the AC50 [3] was 2.31 µM (active). The AC50 [4] was 6.11 µM (active), the CC50 [5] was 14.9 µM (active) and the EC50 (Melanocortin receptor 4) was > 89.2 µM (inactive). The AC50 [6] was 27.2 µM (active).

With `O=c1c2ccccc2nc2sc(Nc3cccc(Cl)c3)nn12` the IC50 [7] was 14.5 µM (active).

With `Cc1ccc(-c2csc3nc(-c4ccncc4)[nH]c(=O)c23)cc1` the IC50 [8] was 62 µM (inactive) and the IC50 [9] was 69.3 µM (inactive).

In the case of `CCCN(CCC)C(=O)Cn1c(=O)c2sccc2n2c(=S)sc(-c3ccccc3)c12`, the IC50 [8] is reported as 12.6 µM (active) and the IC50 [9] is reported as 73.8 µM (inactive).

With `CCOC(=O)c1c(C)n(C)c2ccc(OCC(O)CN3CCN(C)CC3)cc12` (stereo not given) the AC50 [10] was 38.9 µM (active).

For `N=C(N)Nc1nc(-c2ccccc2)c2cc(Cl)ccc2n1`, the EC50 [11] was > 60 µM (not active), the EC50 [12] was 0.382 µM (active) and the EC50 (Melanocortin receptor 4) was > 89.2 µM (inactive). For the same compound, the IC50 [13] was > 20 µM (inactive) and the AC50 [14] was 6.61 µM (active).

For `CSc1nc(SCC(N)=O)c2c3c(sc2n1)CN(C)CC3`, the AC50 [10] was 17.2 µM (active).

In the case of `Oc1ccc(C=NN=C2c3ccccc3-c3ccccc32)c(O)c1`, the IC50 [8] is reported as 6.06 µM (active), the IC50 [9] is reported as 12.5 µM (active) and the AC50 [15] is reported as 12.1 µM (active).

In the case of `Oc1nc(N2CCN(Cc3ccc4c(c3)OCO4)CC2)nc2c1CCCC2`, the AC50 [16] is reported as 0.921 µM (active).

For `COc1cccc(-c2cnc3c(NC=O)cc(-c4cc(OC)c(OC)c(OC)c4)cn23)c1`, the IC50 (H9c2) was > 79 µM (inactive) and the EC50 (Melanocortin receptor 4) was > 89.2 µM (inactive).

With `Cn1nnc2cc(C(=O)Nc3cccnc3)ccc21` the AC50 [16] was 4.17 µM (active).

In the case of `CC(=O)Oc1ccc(C2COc3cc(OC(C)=O)c(OC(C)=O)cc3C2)cc1` (stereo not given), the GI50 (SN12K1) is reported as 13 µM (inactive), the GI50 (P388) is reported as 6 µM (inactive) and the GI50 (P388/ADR) is reported as 5.42 µM (inactive).

In the case of `CSCSCC(CO)NC(=O)/C(C)=C\c1c(C)[nH]c(=O)[nH]c1=O` (stereo not given), the GI50 (SN12K1) is reported as > 250 µM (inactive), the GI50 (P388) is reported as > 250 µM (inactive) and the GI50 (P388/ADR) is reported as > 250 µM (inactive).

In the case of `O=C(O)CC(NC(=O)CP(=O)(O)O)C(=O)O` (stereo not given), the GI50 (SN12K1) is reported as 5.32 µM (inactive), the GI50 (P388) is reported as 127 µM (inactive) and the GI50 (P388/ADR) is reported as 77.1 µM (inactive).

In the case of `C/C=C/c1ccc2c(c1)O[C@@H](CN(C)C(=O)Nc1ccccc1)[C@H](C)CN([C@H](C)CO)S2(=O)=O`, the AC50 [16] is reported as 5.6 µM (active).

In the case of `O=c1[nH]c2ccccc2n1C1CCN(Cc2ccc(-c3nc4cc5[nH]cnc5cc4nc3-c3ccccc3)cc2)CC1`, the IC50 [7] is reported as 7.43 µM (active).

For `C/C(=C\c1ccccc1)C(=O)CCN1CCOCC1`, the GI50 (SN12K1) was 17.9 µM (inactive), the GI50 (P388) was 4.78 µM (inactive) and the GI50 (P388/ADR) was 5.73 µM (inactive).

— ChEMBL document CHEMBL1201862, “PubChem BioAssay data set” (2004)
